In PubChem BioAssay (NCI):
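Method: 48-hour compound exposure of cells in 96-well plates, five concentrations, linear interpolation of endpoints. GI50 is the concentration that inhibits growth by half. TGI is the concentration that stops growth completely.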

What was measured:
Assay in all cases: NCI anticancer screen, dose series, 48 h
IGROV1 ovarian = test system: IGROV1 ovarian
SN12C renal = test system: SN12C renal
RPMI-8226 leukemia = test system: RPMI-8226 leukemia
KM12 colon = test system: KM12 colon
HCT-116 colon = test system: HCT-116 colon
UACC-62 melanoma = test system: UACC-62 melanoma
HOP-62 NSCLC = test system: HOP-62 NSCLC
HL-60(TB) leukemia = test system: HL-60(TB) leukemia
HCT-15 colon = test system: HCT-15 colon
SW-620 colon = test system: SW-620 colon
SK-MEL-28 melanoma = test system: SK-MEL-28 melanoma
786-0 renal = test system: 786-0 renal
MDA-MB-435 = test system: MDA-MB-435
TK-10 renal = test system: TK-10 renal
SK-MEL-5 melanoma = test system: SK-MEL-5 melanoma
MDA-MB-231 breast = test system: MDA-MB-231 breast
SR leukemia = test system: SR leukemia
EKVX NSCLC = test system: EKVX NSCLC
HCC-2998 colon = test system: HCC-2998 colon
SK-OV-3 ovarian = test system: SK-OV-3 ovarian
NCI-H460 lung = test system: NCI-H460 lung
U251 CNS = test system: U251 CNS
A549 NSCLC = test system: A549 NSCLC
MALME-3M melanoma = test system: MALME-3M melanoma
NCI-H522 lung = test system: NCI-H522 lung
UACC-257 melanoma = test system: UACC-257 melanoma
LOX IMVI melanoma = test system: LOX IMVI melanoma
BT-549 breast = test system: BT-549 breast
COLO 205 colon = test system: COLO 205 colon
M14 melanoma = test system: M14 melanoma
MOLT-4 leukemia = test system: MOLT-4 leukemia
NCI-H226 lung = test system: NCI-H226 lung
SF-268 CNS = test system: SF-268 CNS
SNB-75 CNS = test system: SNB-75 CNS
SF-295 CNS = test system: SF-295 CNS
SNB-19 CNS = test system: SNB-19 CNS
ACHN renal = test system: ACHN renal
HOP-92 NSCLC = test system: HOP-92 NSCLC
NCI/ADR-RES ovarian = test system: NCI/ADR-RES ovarian
SK-MEL-2 melanoma = test system: SK-MEL-2 melanoma
OVCAR-4 ovarian = test system: OVCAR-4 ovarian
DU-145 prostate = test system: DU-145 prostate
T-47D breast = test system: T-47D breast
HS 578T breast = test system: HS 578T breast
SF-539 CNS = test system: SF-539 CNS
A498 renal = test system: A498 renal
CAKI-1 renal = test system: CAKI-1 renal
OVCAR-8 ovarian = test system: OVCAR-8 ovarian
NCI-H23 lung = test system: NCI-H23 lung
OVCAR-5 ovarian = test system: OVCAR-5 ovarian
PC-3 prostate = test system: PC-3 prostate
OVCAR-3 ovarian = test system: OVCAR-3 ovarian
MDA-MB-468 breast = test system: MDA-MB-468 breast
HT29 colon = test system: HT29 colon
UO-31 renal = test system: UO-31 renal
K-562 leukemia = test system: K-562 leukemia
CCRF-CEM leukemia = test system: CCRF-CEM leukemia
MCF7 breast = test system: MCF7 breast

With N/C(=N\c1nc2ccccc2s1)NC(=O)Nc1ccccc1Br the GI50 (IGROV1 ovarian) was 164 nM, the TGI (IGROV1 ovarian) was > 35000 nM and the GI50 (SN12C renal) was 194 nM. For the same molecule, the GI50 (RPMI-8226 leukemia) was 149 nM, the GI50 (KM12 colon) was 125 nM and the GI50 (HCT-116 colon) was 115 nM. The TGI (HCT-116 colon) was 3630 nM, the GI50 (UACC-62 melanoma) was 88.2 nM and the TGI (UACC-62 melanoma) was > 35100 nM. For the same molecule, the GI50 (HOP-62 NSCLC) was 145 nM, the TGI (HOP-62 NSCLC) was > 32000 nM and the GI50 (HL-60(TB) leukemia) was 89.3 nM. The GI50 (HCT-15 colon) was 116 nM, the GI50 (SW-620 colon) was 116 nM and the TGI (SW-620 colon) was > 38100 nM. For the same molecule, the GI50 (SK-MEL-28 melanoma) was 1430 nM, the TGI (SK-MEL-28 melanoma) was > 100000 nM and the GI50 (786-0 renal) was 170 nM. The GI50 (MDA-MB-435) was < 37.2 nM, the TGI (MDA-MB-435) was 76.7 nM and the TGI (TK-10 renal) was > 28400 nM. It also gave a GI50 (SK-MEL-5 melanoma) of 103 nM, a TGI (SK-MEL-5 melanoma) of 697 nM and a GI50 (MDA-MB-231 breast) of 148 nM. For the same molecule, the TGI (MDA-MB-231 breast) was 1430 nM, the TGI (SR leukemia) was > 41800 nM and the GI50 (EKVX NSCLC) was 183 nM. The TGI (EKVX NSCLC) was > 76900 nM, the GI50 (HCC-2998 colon) was 192 nM and the TGI (HCC-2998 colon) was 3390 nM. The GI50 (SK-OV-3 ovarian) was 188 nM, the TGI (SK-OV-3 ovarian) was > 32200 nM and the GI50 (NCI-H460 lung) was 116 nM. For the same molecule, the GI50 (U251 CNS) was 116 nM, the GI50 (A549 NSCLC) was 282 nM and the GI50 (MALME-3M melanoma) was 151 nM. The TGI (MALME-3M melanoma) was > 25000 nM, the GI50 (NCI-H522 lung) was < 48.5 nM and the TGI (NCI-H522 lung) was 169 nM. For the same molecule, the TGI (UACC-257 melanoma) was > 100000 nM, the GI50 (LOX IMVI melanoma) was 235 nM and the TGI (LOX IMVI melanoma) was 8740 nM. The GI50 (BT-549 breast) was 256 nM, the TGI (BT-549 breast) was 7180 nM and the GI50 (COLO 205 colon) was 96.4 nM. It also gave a TGI (COLO 205 colon) of 328 nM, a GI50 (M14 melanoma) of 76.8 nM and a GI50 (MOLT-4 leukemia) of 165 nM. For the same molecule, the TGI (MOLT-4 leukemia) was > 33800 nM, the GI50 (NCI-H226 lung) was 723 nM and the TGI (NCI-H226 lung) was 8730 nM. For the same molecule, the GI50 (SF-268 CNS) was 801 nM, the TGI (SF-268 CNS) was > 35000 nM and the GI50 (SNB-75 CNS) was 58.3 nM. It also gave a GI50 (SF-295 CNS) of 104 nM, a TGI (SF-295 CNS) of 3860 nM and a GI50 (SNB-19 CNS) of 178 nM. For the same molecule, the TGI (SNB-19 CNS) was > 43100 nM, the GI50 (ACHN renal) was 244 nM and the TGI (HOP-92 NSCLC) was > 28100 nM. It also gave a GI50 (NCI/ADR-RES ovarian) of 10.1 nM, a TGI (NCI/ADR-RES ovarian) of 40.6 nM and a GI50 (SK-MEL-2 melanoma) of 39.9 nM. The TGI (SK-MEL-2 melanoma) was 10800 nM, the GI50 (OVCAR-4 ovarian) was 6210 nM and the TGI (OVCAR-4 ovarian) was > 23500 nM. For the same molecule, the GI50 (DU-145 prostate) was 140 nM, the GI50 (T-47D breast) was 51.3 nM and the TGI (T-47D breast) was > 100000 nM. The GI50 (HS 578T breast) was 79.8 nM, the TGI (HS 578T breast) was > 25500 nM and the GI50 (SF-539 CNS) was 69.3 nM. For the same molecule, the TGI (SF-539 CNS) was 195 nM, the GI50 (A498 renal) was > 38200 nM and the TGI (A498 renal) was > 58400 nM. It also gave a GI50 (CAKI-1 renal) of 92.5 nM, a GI50 (OVCAR-8 ovarian) of 148 nM and a GI50 (NCI-H23 lung) of 146 nM. For the same molecule, the TGI (NCI-H23 lung) was > 20600 nM, the GI50 (OVCAR-5 ovarian) was 220 nM and the GI50 (PC-3 prostate) was 162 nM. For the same molecule, the TGI (PC-3 prostate) was > 53100 nM, the GI50 (OVCAR-3 ovarian) was 102 nM and the TGI (OVCAR-3 ovarian) was 1340 nM. For the same molecule, the GI50 (MDA-MB-468 breast) was 419 nM, the TGI (MDA-MB-468 breast) was 1660 nM and the GI50 (HT29 colon) was 92.1 nM. The TGI (HT29 colon) was 286 nM, the GI50 (UO-31 renal) was 184 nM and the TGI (UO-31 renal) was > 37200 nM. The GI50 (K-562 leukemia) was 75.3 nM, the TGI (K-562 leukemia) was > 100000 nM and the GI50 (CCRF-CEM leukemia) was 118 nM. The GI50 (MCF7 breast) was 119 nM and the TGI (MCF7 breast) was > 91600 nM.
